The values below come from ChEMBL document CHEMBL3045700, “Synthesis and in vitro and in vivo antimalarial activity of novel 4-anilinoquinoline Mannich base derivatives” (2011).

Assay [1] has as its system Plasmodium falciparum. Description: Antimalarial activity against chloroquine-sensitive Plasmodium falciparum 3D7 assessed as inhibition of schizont maturation at 100 ug/ml after 36 to 40 hr incubation by Giemsa staining. Format: functional.
Assay [2] concerns Plasmodium falciparum. Kind of assay: Antimalarial activity against chloroquine-sensitive Plasmodium falciparum 3D7 assessed as inhibition of schizont maturation at 10 ug/ml after 36 to 40 hr incubation by Giemsa staining. Format: functional.
Assay [3] has as its system Plasmodium falciparum. Kind of assay: Antimalarial activity against chloroquine-sensitive Plasmodium falciparum 3D7 assessed as inhibition of schizont maturation at 1 ug/ml after 36 to 40 hr incubation by Giemsa staining. It counts as functional.
Assay [4] has as its system Plasmodium falciparum. Description: Antimalarial activity against chloroquine-sensitive Plasmodium falciparum 3D7 assessed as inhibition of schizont maturation at 2 ug/ml after 36 to 40 hr incubation by Giemsa staining. It counts as functional.
Assay [5] concerns Plasmodium falciparum. Kind of assay: Antimalarial activity against chloroquine-sensitive Plasmodium falciparum 3D7 assessed as inhibition of schizont maturation at 50 ug/ml after 36 to 40 hr incubation by Giemsa staining. Format: functional.
The test system of assay [6] is Plasmodium falciparum. Kind of assay: Antimalarial activity against chloroquine-sensitive Plasmodium falciparum 3D7 assessed as inhibition of schizont maturation at 0.0625 ug/ml after 36 to 40 hr incubation by Giemsa staining. Format: functional.
The test system of assay [7] is Plasmodium falciparum. Kind of assay: Antimalarial activity against chloroquine-sensitive Plasmodium falciparum 3D7 assessed as inhibition of schizont maturation at 0.5 ug/ml after 36 to 40 hr incubation by Giemsa staining. It counts as functional.
Assay [8] relates to Plasmodium falciparum. Kind of assay: Antimalarial activity against chloroquine-sensitive Plasmodium falciparum RKL-2 assessed as dead rings and schizonts at 0.4 ug/ml after 36 to 40 hr incubation by Giemsa staining. It counts as functional.
The subject of assay [9] is Plasmodium falciparum. Description: Antimalarial activity against chloroquine-sensitive Plasmodium falciparum 3D7 assessed as inhibition of schizont maturation at 0.25 ug/ml after 36 to 40 hr incubation by Giemsa staining. It counts as functional.
In assay [10] the test system is Plasmodium falciparum. Kind of assay: Antimalarial activity against chloroquine-sensitive Plasmodium falciparum 3D7 assessed as inhibition of schizont maturation at 0.125 ug/ml after 36 to 40 hr incubation by Giemsa staining. It counts as functional.
Assay [11] concerns Plasmodium falciparum. Kind of assay: Antimalarial activity against chloroquine-sensitive Plasmodium falciparum RKL-2 assessed as dead rings and schizonts at 100 ug/ml after 36 to 40 hr incubation by Giemsa staining. It counts as functional.
Assay [12] concerns Plasmodium yoelii. Kind of assay: Antimalarial activity against chloroquine-resistant Plasmodium yoelii infected Swiss mouse assessed as mouse showing nil parasitemia at 500 mg/kg, po qd for 4 days measured on day 4. Details: dose 500 mg/kg. Format: functional, organism-based.
Assay [13] relates to Plasmodium falciparum. Kind of assay: Antimalarial activity against chloroquine-sensitive Plasmodium falciparum 3D7 assessed as inhibition of schizont maturation at 0.063 ug/ml after 36 to 40 hr incubation by Giemsa staining. It counts as functional.
For assay [14], the system named is Plasmodium yoelii. Kind of assay: Antimalarial activity against chloroquine-resistant Plasmodium yoelii infected Swiss mouse assessed as mouse showing nil parasitemia at 500 mg/kg, po qd for 4 days measured on day 7. Format: functional, organism-based. More on the design: dose 500 mg/kg.
For assay [15], the system named is Plasmodium yoelii. Kind of assay: Antimalarial activity against chloroquine-resistant Plasmodium yoelii infected Swiss mouse assessed as mouse showing nil parasitemia at 500 mg/kg, po qd for 4 days measured on day 10. Details: dose 500 mg/kg. Format: functional, organism-based.
Assay [16] has as its system Plasmodium falciparum. Description: Antimalarial activity against chloroquine-sensitive Plasmodium falciparum 3D7 assessed as inhibition of schizont maturation at 0.031 ug/ml after 36 to 40 hr incubation by Giemsa staining. Format: functional.
Assay [17] has as its system Plasmodium yoelii. Kind of assay: Antimalarial activity against chloroquine-resistant Plasmodium yoelii infected Swiss mouse assessed as suppression parasitemia at 500 mg/kg, po qd for 4 days. Format: functional.

Activity calls are given as the source filed them. No cut-off for these calls is given here.

`CCCCNCc1cc(Nc2ccnc3cc(Cl)ccc23)ccc1O`: in [1], the inhibition (in general, the drop in the measured response relative to a control, in per cent) at 100 µg/mL turned out to be 100%. Further, the inhibition at 10 µg/mL in [2] was 100%. Moreover, in assay [3], the inhibition at 1 µg/mL was found to be 71.1%. For the same molecule, the inhibition at 2 µg/mL in assay [4] was 82.2%. For the same molecule, the inhibition at 50 µg/mL in [5] came out at 100%.

For the molecule `Oc1ccc(Nc2ccnc3cc(Cl)ccc23)cc1CN(c1ccccc1)c1ccccc1`, the inhibition at 100 µg/mL in [1] was 38.9%. In addition, in assay [5], the inhibition at 50 µg/mL turned out to be 0.05%.

Regarding `CCN(CC)CCCC(C)Nc1ccnc2cc(Cl)ccc12` (stereo not given) [CHLOROQUINE], the inhibition at 0.0625 µg/mL in assay [6] was found to be 88.4%. In addition, the inhibition at 0.5 µg/mL in [7] is 100%. In addition, the Activity in [8] was found to be 54%. Further, in assay [9], the inhibition at 0.25 µg/mL worked out at 100%. In addition, the inhibition at 0.125 µg/mL in [10] was found to be 97.1%.

`CCCCN(CCCC)Cc1cc(Nc2ccnc3cc(Cl)ccc23)ccc1O`: the Activity in assay [11] was found to be 5%.

With `CC(C)N(Cc1cc(Nc2ccnc3cc(Cl)ccc23)ccc1O)C(C)C`, the Activity in assay [11] was determined as 3%.

On to `Oc1ccc(Nc2ccnc3cc(Cl)ccc23)cc1CN1CCOCC1`, for which the inhibition at 100 µg/mL in [1] turned out to be 100%. The inhibition at 10 µg/mL in assay [2] came to 100%. Also, in assay [3], the inhibition at 1 µg/mL was found to be 100%. Moreover, the inhibition at 0.5 µg/mL in [7] worked out at 100%. Besides, the result in [12], in [14] and in [15] was Active. For the same molecule, the inhibition at 2 µg/mL in assay [4] is 100%. Further, the inhibition at 0.063 µg/mL in assay [13] stood at 100%. Besides, the inhibition at 0.031 µg/mL in assay [16] came to 73.3%. Also, the inhibition at 50 µg/mL in assay [5] came to 100%. For the same molecule, the inhibition at 0.25 µg/mL in [9] was determined as 100%. The Activity in assay [17] was determined as 100%. The inhibition at 0.125 µg/mL in assay [10] was determined as 100%.

With `CC(C)NCc1cc(Nc2ccnc3cc(Cl)ccc23)ccc1O`, in assay [11], the Activity came out at 6.5%.

On to `CCCNCc1cc(Nc2ccnc3cc(Cl)ccc23)ccc1O`, for which the Activity in [11] came out at 6.5%.
